{
  "source": "ChEMBL document CHEMBL4376820",
  "about": "“Homodimeric Tobramycin Adjuvant Repurposes Novobiocin as an Effective Antibacterial Agent against Gram-Negative Bacteria” (J Med Chem, 2019)",
  "key": {"Pseudomonas aeruginosa [1]": {"test_system": "Pseudomonas aeruginosa", "assay": "Potentiation of novobiocin-induced antibacterial activity against carbapenem and colistin-resistant Pseudomonas aeruginosa 114228 clinical isolate assessed as novobiocin MIC at <= 7.1 uM incubated for 18 hrs by CLSI protocol based assay (reference value: 512 ug/ml)", "type": "functional", "conditions": "Pseudomonas aeruginosa, 114228, 18 h"}, "Acinetobacter baumannii [2]": {"test_system": "Acinetobacter baumannii", "assay": "Antibacterial activity against wild type Acinetobacter baumannii ATCC 17978 assessed as resistant development at 7.1 uM in presence of novobiocin by microbroth dilution method relative to control", "type": "functional"}, "Escherichia coli [3]": {"test_system": "Escherichia coli", "assay": "Potentiation of novobiocin-induced antibacterial activity against carbapenem-resistant Escherichia coli 107115 clinical isolate harboring mcr-1 gene assessed as novobiocin MIC at <= 7.1 uM incubated for 18 hrs by CLSI protocol based assay (reference value: 128 ug/ml)", "type": "functional", "conditions": "Escherichia coli, 107115, 18 h"}, "Acinetobacter baumannii [4]": {"test_system": "Acinetobacter baumannii", "assay": "Potentiation of novobiocin-induced antibacterial activity against Acinetobacter baumannii 031 clinical isolate assessed as fold reduction in novobiocin MIC incubated for 18 hrs by CLSI protocol based assay relative to novobiocin MIC", "type": "functional"}, "Acinetobacter baumannii [5]": {"test_system": "Acinetobacter baumannii", "assay": "Antibacterial activity against Acinetobacter baumannii 031 clinical incubated for 18 hrs by CLSI protocol based assay", "type": "functional", "conditions": "Acinetobacter baumannii, 031, 18 h"}, "Acinetobacter baumannii [6]": {"test_system": "Acinetobacter baumannii", "assay": "Antibacterial activity against colistin-resistant Acinetobacter baumannii 92257 clinical isolate incubated for 18 hrs by CLSI protocol based assay", "type": "functional", "conditions": "Acinetobacter baumannii, 92257, 18 h"}, "Pseudomonas aeruginosa [7]": {"test_system": "Pseudomonas aeruginosa", "assay": "Synergistic antibacterial activity against wild type Pseudomonas aeruginosa PAO1 assessed as potentiation of ceftazidime-induced antibacterial effect incubated for 18 hrs by checkerboard assay relative to ceftazidime alone", "type": "functional"}, "Pseudomonas aeruginosa [8]": {"test_system": "Pseudomonas aeruginosa", "assay": "Antibacterial activity against carbapenem and colistin-resistant Pseudomonas aeruginosa 91433 clinical isolate incubated for 18 hrs by CLSI protocol based assay", "type": "functional", "conditions": "Pseudomonas aeruginosa, 91433, 18 h"}, "Acinetobacter baumannii [9]": {"test_system": "Acinetobacter baumannii", "assay": "Bactericidal activity against Acinetobacter baumannii ATCC 17978 assessed as log reduction in colony forming units per ml at 7.1 uM in LB media after 9 hrs by time-kill assay", "type": "functional"}, "Klebsiella pneumoniae [10]": {"test_system": "Klebsiella pneumoniae", "assay": "Bactericidal activity against Klebsiella pneumoniae 116381 assessed as log reduction in colony forming units per ml at 7.1 in LB media after 24 hrs by time-kill assay", "type": "functional"}, "Pseudomonas aeruginosa [11]": {"test_system": "Pseudomonas aeruginosa", "assay": "Potentiation of novobiocin-induced antibacterial activity against carbapenem-resistant Pseudomonas aeruginosa 100036 clinical isolate assessed as novobiocin MIC at <= 7.1 uM incubated for 18 hrs by CLSI protocol based assay (reference value: 1024 ug/ml)", "type": "functional", "conditions": "Pseudomonas aeruginosa, 100036, 18 h"}, "Pseudomonas aeruginosa [12]": {"test_system": "Pseudomonas aeruginosa", "assay": "Synergistic antibacterial activity against wild type Pseudomonas aeruginosa PAO1 assessed as potentiation of novobiocin-induced antibacterial effect incubated for 18 hrs by checkerboard assay relative to novobiocin alone", "type": "functional"}, "Pseudomonas aeruginosa [13]": {"test_system": "Pseudomonas aeruginosa", "assay": "Potentiation of novobiocin-induced antibacterial activity against mexAB-oprM mutant deficient Pseudomonas aeruginosa PAO200 assessed as novobiocin MIC at <= 7.1 uM incubated for 18 hrs by CLSI protocol based assay (reference value: 32 ug/ml)", "type": "functional", "conditions": "PAO200, 18 h"}, "Pseudomonas aeruginosa [14]": {"test_system": "Pseudomonas aeruginosa", "assay": "Synergistic antibacterial activity against wild type Pseudomonas aeruginosa PAO1 assessed as potentiation of chloramphenicol-induced antibacterial effect incubated for 18 hrs by checkerboard assay relative to chloramphenicol alone", "type": "functional"}, "Pseudomonas aeruginosa [15]": {"test_system": "Pseudomonas aeruginosa", "assay": "Potentiation of novobiocin-induced antibacterial activity against carbapenem and colistin-resistant Pseudomonas aeruginosa 114228 clinical isolate assessed as fold reduction in novobiocin MIC incubated for 18 hrs by CLSI protocol based assay relative to novobiocin MIC", "type": "functional"}, "Pseudomonas aeruginosa [16]": {"test_system": "Pseudomonas aeruginosa", "assay": "Synergistic antibacterial activity against wild type Pseudomonas aeruginosa PAO1 assessed as potentiation of linezolid-induced antibacterial effect incubated for 18 hrs by checkerboard assay relative to linezolid alone", "type": "functional"}, "Escherichia coli [17]": {"test_system": "Escherichia coli", "assay": "Potentiation of novobiocin-induced antibacterial activity against colistin-resistant Escherichia coli 94393 clinical isolate harboring mcr-1 gene assessed as novobiocin MIC at <= 7.1 uM incubated for 18 hrs by CLSI protocol based assay (reference value: 128 ug/ml)", "type": "functional", "conditions": "Escherichia coli, 94393, 18 h"}, "Klebsiella pneumoniae [18]": {"test_system": "Klebsiella pneumoniae", "assay": "Antibacterial activity against Klebsiella pneumoniae 116381 clinical isolate incubated for 18 hrs by CLSI protocol based assay", "type": "functional", "conditions": "Klebsiella pneumoniae, 116381, 18 h"}, "Pseudomonas aeruginosa [19]": {"test_system": "Pseudomonas aeruginosa", "assay": "Synergistic antibacterial activity against wild type Pseudomonas aeruginosa PAO1 assessed as potentiation of levofloxacin-induced antibacterial effect incubated for 18 hrs by checkerboard assay", "type": "functional, organism-based"}, "Pseudomonas aeruginosa [20]": {"test_system": "Pseudomonas aeruginosa", "assay": "Potentiation of novobiocin-induced antibacterial activity against mexAB-oprM/mexCD-oprJ/mexEF-oprN/mexJK/mexXY/opmH mutant deficient Pseudomonas aeruginosa PAO750 assessed as novobiocin MIC at <= 7.1 uM incubated for 18 hrs by CLSI protocol based assay (reference value: 32 ug/ml)", "type": "functional", "conditions": "PAO750, 18 h"}, "Escherichia coli [21]": {"test_system": "Escherichia coli", "assay": "Antibacterial activity against colistin-resistant Escherichia coli 94393 clinical isolate harboring mcr-1 gene incubated for 18 hrs by CLSI protocol based assay", "type": "functional", "conditions": "Escherichia coli, 94393, 18 h"}, "Pseudomonas aeruginosa [22]": {"test_system": "Pseudomonas aeruginosa", "assay": "Synergistic antibacterial activity against wild type Pseudomonas aeruginosa PAO1 assessed as potentiation of ciprofloxacin-induced antibacterial effect incubated for 18 hrs by checkerboard assay relative to ciprofloxacin alone", "type": "functional"}, "Pseudomonas aeruginosa [23]": {"test_system": "Pseudomonas aeruginosa", "assay": "Synergistic antibacterial activity against wild type Pseudomonas aeruginosa PAO1 assessed as potentiation of ciprofloxacin-induced antibacterial effect incubated for 18 hrs by checkerboard assay", "type": "functional, organism-based"}, "Pseudomonas aeruginosa [24]": {"test_system": "Pseudomonas aeruginosa", "assay": "Bactericidal activity against Pseudomonas aeruginosa PAO1 assessed as log reduction in colony forming units per ml at 7.1 uM in LB media after 24 hrs in by time-kill assay", "type": "functional"}, "Acinetobacter baumannii [25]": {"test_system": "Acinetobacter baumannii", "assay": "Antibacterial activity against Acinetobacter baumannii 027 clinical incubated for 18 hrs by CLSI protocol based assay", "type": "functional", "conditions": "Acinetobacter baumannii, 027, 18 h"}, "Pseudomonas aeruginosa [26]": {"test_system": "Pseudomonas aeruginosa", "assay": "Synergistic antibacterial activity against wild type Pseudomonas aeruginosa PAO1 assessed as potentiation of moxifloxacin-induced antibacterial effect incubated for 18 hrs by checkerboard assay", "type": "functional, organism-based"}, "Enterobacter cloacae": {"test_system": "Enterobacter cloacae", "assay": "Potentiation of novobiocin-induced antibacterial activity against Enterobacter cloacae 117029 clinical solate assessed as novobiocin MIC at <= 7.1 uM incubated for 18 hrs by CLSI protocol based assay (reference value: 1024 ug/ml)", "type": "functional", "conditions": "Enterobacter cloacae, 117029, 18 h"}, "Pseudomonas aeruginosa [27]": {"test_system": "Pseudomonas aeruginosa", "assay": "Antibacterial activity against carbapenem-resistant Pseudomonas aeruginosa 101885 clinical isolate incubated for 18 hrs by CLSI protocol based assay", "type": "functional", "conditions": "Pseudomonas aeruginosa, 101885, 18 h"}, "Pseudomonas aeruginosa [28]": {"test_system": "Pseudomonas aeruginosa", "assay": "Potentiation of novobiocin-induced antibacterial activity against carbapenem-resistant Pseudomonas aeruginosa 259-96918 clinical isolate assessed as fold reduction in novobiocin MIC incubated for 18 hrs by CLSI protocol based assay relative to novobiocin MIC", "type": "functional"}, "Pseudomonas aeruginosa [29]": {"test_system": "Pseudomonas aeruginosa", "assay": "Potentiation of novobiocin-induced antibacterial activity against carbapenem-resistant Pseudomonas aeruginosa 260-97103 clinical isolate assessed as novobiocin MIC at <= 7.1 uM incubated for 18 hrs by CLSI protocol based assay (reference value: 256 ug/ml)", "type": "functional", "conditions": "260-97103, 18 h"}, "Pseudomonas aeruginosa [30]": {"test_system": "Pseudomonas aeruginosa", "assay": "Synergistic antibacterial activity against wild type Pseudomonas aeruginosa PAO1 assessed as potentiation of levofloxacin-induced antibacterial effect incubated for 18 hrs by checkerboard assay relative to levofloxacin alone", "type": "functional"}, "Pseudomonas aeruginosa [31]": {"test_system": "Pseudomonas aeruginosa", "assay": "Potentiation of novobiocin-induced antibacterial activity against carbapenem-resistant Pseudomonas aeruginosa 262-101856 clinical isolate assessed as novobiocin MIC at <= 7.1 uM incubated for 18 hrs by CLSI protocol based assay (reference value: 512 ug/ml)", "type": "functional", "conditions": "262-101856, 18 h"}},
  "data": [
    {"smiles": "NC[C@H]1O[C@H](O[C@H]2[C@H](OCCCCc3cn(CCCCO[C@@H]4[C@@H](O[C@H]5O[C@H](CO)[C@@H](O)[C@H](N)[C@H]5O)[C@H](N)C[C@H](N)[C@H]4O[C@H]4O[C@H](CN)[C@@H](O)C[C@H]4N)nn3)[C@@H](O[C@H]3O[C@H](CO)[C@@H](O)[C@H](N)[C@H]3O)[C@H](N)C[C@@H]2N)[C@H](N)C[C@@H]1O.O=C(O)C(F)(F)F.O=C(O)C(F)(F)F.O=C(O)C(F)(F)F.O=C(O)C(F)(F)F.O=C(O)C(F)(F)F.O=C(O)C(F)(F)F.O=C(O)C(F)(F)F.O=C(O)C(F)(F)F.O=C(O)C(F)(F)F.O=C(O)C(F)(F)F", "values": [
      {"measurement": "MIC", "setting": "Pseudomonas aeruginosa [1]", "result": 16, "unit": "µg/mL"},
      {"measurement": "fold change (FC)", "setting": "Acinetobacter baumannii [2]", "result": 2},
      {"measurement": "MIC", "setting": "Escherichia coli [3]", "result": 8, "unit": "µg/mL"},
      {"measurement": "Ratio", "setting": "Acinetobacter baumannii [4]", "result": 16},
      {"measurement": "MIC", "setting": "Acinetobacter baumannii [5]", "result": "> 128", "unit": "µg/mL"},
      {"measurement": "MIC", "setting": "Acinetobacter baumannii [6]", "result": "> 128", "unit": "µg/mL"},
      {"measurement": "fold change (FC)", "setting": "Pseudomonas aeruginosa [7]", "result": "4 - 128"},
      {"measurement": "MIC", "setting": "Pseudomonas aeruginosa [8]", "result": "> 128", "unit": "µg/mL"},
      {"measurement": "Activity", "setting": "Acinetobacter baumannii [9]", "result": -3, "unit": "CFU/ml"},
      {"measurement": "Activity", "setting": "Klebsiella pneumoniae [10]", "result": -8.68, "unit": "CFU/ml"},
      {"measurement": "MIC", "setting": "Pseudomonas aeruginosa [11]", "result": 8, "unit": "µg/mL"},
      {"measurement": "fold change (FC)", "setting": "Pseudomonas aeruginosa [12]", "result": "4 - 128"},
      {"measurement": "MIC", "setting": "Pseudomonas aeruginosa [13]", "result": 0.125, "unit": "µg/mL"},
      {"measurement": "fold change (FC)", "setting": "Pseudomonas aeruginosa [14]", "result": "4 - 128"},
      {"measurement": "Ratio", "setting": "Pseudomonas aeruginosa [15]", "result": 32},
      {"measurement": "fold change (FC)", "setting": "Pseudomonas aeruginosa [16]", "result": "4 - 128"},
      {"measurement": "MIC", "setting": "Escherichia coli [17]", "result": 2, "unit": "µg/mL"},
      {"measurement": "MIC", "setting": "Klebsiella pneumoniae [18]", "result": "> 128", "unit": "µg/mL"},
      {"measurement": "Activity", "setting": "Pseudomonas aeruginosa [19]", "result": "Dose-dependent effect"},
      {"measurement": "MIC", "setting": "Pseudomonas aeruginosa [20]", "result": 0.125, "unit": "µg/mL"},
      {"measurement": "MIC", "setting": "Escherichia coli [21]", "result": "> 128", "unit": "µg/mL"},
      {"measurement": "fold change (FC)", "setting": "Pseudomonas aeruginosa [22]", "result": "4 - 128"},
      {"measurement": "Activity", "setting": "Pseudomonas aeruginosa [23]", "result": "Dose-dependent effect"},
      {"measurement": "Activity", "setting": "Pseudomonas aeruginosa [24]", "result": -3.68, "unit": "CFU/ml"},
      {"measurement": "MIC", "setting": "Acinetobacter baumannii [25]", "result": "> 128", "unit": "µg/mL"},
      {"measurement": "Activity", "setting": "Pseudomonas aeruginosa [26]", "result": "Dose-dependent effect"},
      {"measurement": "MIC", "setting": "Enterobacter cloacae", "result": 8, "unit": "µg/mL"},
      {"measurement": "MIC", "setting": "Pseudomonas aeruginosa [27]", "result": "> 128", "unit": "µg/mL"},
      {"measurement": "Ratio", "setting": "Pseudomonas aeruginosa [28]", "result": 64},
      {"measurement": "MIC", "setting": "Pseudomonas aeruginosa [29]", "result": 1, "unit": "µg/mL"},
      {"measurement": "fold change (FC)", "setting": "Pseudomonas aeruginosa [30]", "result": "4 - 128"},
      {"measurement": "MIC", "setting": "Pseudomonas aeruginosa [31]", "result": 8, "unit": "µg/mL"}
    ]}
  ]
}
